From publication PMC1991597, “Structure and Reaction Mechanism of Basil Eugenol Synthase” (PLoS ONE, 2007)

Legend:
[1] = molecular target: T1, eugenol synthase (EGS, EGS1) (Ocimum basilicum, UniProt Q15GI4); assay: X-ray co-crystal structure ([…] Å, soaking); enzyme inhibition kinetics (GC/MS); type: biochemical
[2] = molecular target: T2, eugenol synthase (EGS, EGS1) (Ocimum basilicum, UniProt Q15GI4, K132R); assay: X-ray crystallography (preliminary structural analysis); type: binding
T2 sequence (Q15GI4 1-314 K132R): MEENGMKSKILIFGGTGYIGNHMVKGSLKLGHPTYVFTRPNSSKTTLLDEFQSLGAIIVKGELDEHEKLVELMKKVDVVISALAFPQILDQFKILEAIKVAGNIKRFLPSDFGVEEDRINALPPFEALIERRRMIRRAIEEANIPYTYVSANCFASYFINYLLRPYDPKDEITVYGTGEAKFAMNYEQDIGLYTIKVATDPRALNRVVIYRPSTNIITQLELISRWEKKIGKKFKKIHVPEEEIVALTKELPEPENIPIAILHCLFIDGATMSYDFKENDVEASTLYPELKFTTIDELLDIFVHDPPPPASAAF

[3] = molecular target: T3, eugenol synthase (EGS, EGS1) (Ocimum basilicum, UniProt Q15GI4, K132A); assay: X-ray crystallography (no deposition stated); type: binding
T3 sequence (Q15GI4 1-314 K132A): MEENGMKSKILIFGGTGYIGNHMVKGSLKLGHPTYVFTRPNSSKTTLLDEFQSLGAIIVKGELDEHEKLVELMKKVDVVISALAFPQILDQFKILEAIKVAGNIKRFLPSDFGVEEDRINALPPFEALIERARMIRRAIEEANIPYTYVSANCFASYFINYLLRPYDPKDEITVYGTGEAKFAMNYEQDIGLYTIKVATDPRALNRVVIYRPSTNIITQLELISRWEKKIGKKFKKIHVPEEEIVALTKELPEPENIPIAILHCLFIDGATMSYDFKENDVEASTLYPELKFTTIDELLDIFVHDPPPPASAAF

[4] = molecular target: T4, eugenol synthase (EGS, EGS1) (Ocimum basilicum, UniProt Q15GI4, K132Q); assay: X-ray co-crystal structure ([…] Å); type: binding
T4 sequence (Q15GI4 1-314 K132Q): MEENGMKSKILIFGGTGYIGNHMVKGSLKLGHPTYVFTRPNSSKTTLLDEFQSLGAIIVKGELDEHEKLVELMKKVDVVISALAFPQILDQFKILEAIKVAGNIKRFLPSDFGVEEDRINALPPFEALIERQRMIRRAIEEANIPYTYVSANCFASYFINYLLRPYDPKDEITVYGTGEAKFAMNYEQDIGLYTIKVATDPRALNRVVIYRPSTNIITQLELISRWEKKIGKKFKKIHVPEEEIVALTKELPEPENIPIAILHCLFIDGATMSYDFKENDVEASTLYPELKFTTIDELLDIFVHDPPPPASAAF

[5] = molecular target: T1, eugenol synthase (EGS, EGS1); assay: X-ray crystal structure ([…] Å monoclinic; also 2QX7 orthorhombic); type: binding
[6] = molecular target: T1, eugenol synthase (EGS, EGS1); assay: X-ray crystal structure ([…] Å); type: binding
[7] = substrate: COc1cc(/C=C/COC(C)=O)ccc1O; assay: enzyme kinetics by GC/MS (Km); crystal soaking gave no stable complex; type: biochemical, Ocimum basilicum; details: NADPH active site (binding mode modeled only)

Molecule: CCOC(=O)[C@H]1C[C@@H]1c1ccc(O)c(OC)c1 [EMDF, (1S,2S)-ethyl 2-(4-hydroxy-3-methoxyphenyl) cyclo-propanecarboxylate]
- Ki [1]: 800 µM
- X-ray crystallography (preliminary structural analysis) [2]: EMDF-bound forms of the Lys132Arg mutant shows that the Arg132 guanidinium moiety is displaced slightly by the EMDF guaiacol ring
- X-ray crystallography (no deposition stated) [3]: Crystallographic analyses confirmed that for the Ala132 and Gln132 mutants, both NADP^+ and EMDF binding are little affected
- X-ray co-crystal structure (1.8 Å) [4]: for the Ala132 and Gln132 mutants, both NADP^+ and EMDF binding are little affected (Figure 5C)

Molecule: NC(=O)c1ccc[n+]([C@@H]2O[C@H](COP(=O)(O)OP(=O)(O)OC[C@H]3O[C@@H](n4cnc5c(N)ncnc54)[C@H](OP(=O)(O)O)[C@@H]3O)[C@@H](O)[C@H]2O)c1 [NADP+]
- X-ray crystal structure (1.6 Å monoclinic; also 2QX7 orthorhombic) [5]: The structures of EGS complexed with NADP^+ or NADPH provide the first structural characterization of nicotinamide-cofactor binding

Molecule: NC(=O)C1=CN([C@@H]2O[C@H](COP(=O)(O)OP(=O)(O)OC[C@H]3O[C@@H](n4cnc5c(N)ncnc54)[C@H](OP(=O)(O)O)[C@@H]3O)[C@@H](O)[C@H]2O)C=CC1 [NADPH]
- X-ray crystal structure (1.6 Å) [6]: Structural differences between the NADP^+ and NADPH complexes of EGS are small, and center around the nicotinamide ring

B1: eugenol synthase (EGS, EGS1) (Ocimum basilicum) (protein)
chain: MEENGMKSKILIFGGTGYIGNHMVKGSLKLGHPTYVFTRPNSSKTTLLDEFQSLGAIIVKGELDEHEKLVELMKKVDVVISALAFPQILDQFKILEAIKVAGNIKRFLPSDFGVEEDRINALPPFEALIERKRMIRRAIEEANIPYTYVSANCFASYFINYLLRPYDPKDEITVYGTGEAKFAMNYEQDIGLYTIKVATDPRALNRVVIYRPSTNIITQLELISRWEKKIGKKFKKIHVPEEEIVALTKELPEPENIPIAILHCLFIDGATMSYDFKENDVEASTLYPELKFTTIDELLDIFVHDPPPPASAAF
- Km [7]: 0.57 mM
